Data on 86 molecules can be found in PubChem BioAssay AID489022 (Sanford-Burnham Center for Chemical Genomics, 2010).

The structures appear in SMILES notation. Activity calls are given as the source filed them. How the calls were made is not given here.

The test system of the test is HEK-293T NF-kB luciferase reporter, luminescence counterscreen. Briefly: inhibitors of NF-kB luciferase reporter, HEK-293T, dose response, counter-screen for BCR NF-kB inhibitor project, luminescence, B-cell screen hits (AID 489022).
Broadly, the IC50 is the concentration that inhibits the measured activity by half. Turning to `Cc1cc(C)c(CN2CCN(C(=O)Cn3cnc4c(NCc5ccccc5)ncnc43)CC2)c(C)c1`, the IC50 is 0.51 µM.
In the case of `CCOC(=O)c1cc2c(=O)n3ccccc3nc2n(CC(C)C)c1=NC(=O)c1c(-c2c(F)cccc2Cl)noc1C`, the IC50 was 5.33 µM.
The figure for `O=C(N/N=C/c1ccc(Cl)cc1Cl)c1ccc(-n2cnnn2)cc1` is > 80 µM (inactive); for `CC(=C\c1ccccc1)/C=C1/SC(=O)N(CCCC(=O)Nc2ccc(C(=O)O)cc2)C1=O` it is > 80 µM (inactive).
Consider `COc1ccc(OCc2cccc(C(=O)NN)c2)cc1`, for which the IC50 was 17.4 µM.
The figure for `C/C(=N\Nc1nc(Nc2ccccc2)nc(N2CCOCC2)n1)c1cccs1` is > 80 µM (inactive).
In the case of `CC1=CC(C)(C)Nc2ccc(OC(=O)CN3C(=O)c4ccccc4C3=O)cc21`, the IC50 was 9.25 µM.
Consider `CCCC(=O)Nc1ccc(Sc2ccc([N+](=O)[O-])cc2)cc1`, for which the 50% inhibitory concentration (IC50) is 8.35 µM.
The figure for `COc1ccc(NC(=O)c2nnn(Cc3cccc(F)c3)c2N)c(OC)c1` is > 80 µM (inactive); for `Cc1nc2ccccn2c1C(=O)/C=C/c1cccc([N+](=O)[O-])c1` it is 52.6 µM (inactive).
With `CCC(C)[C@H](N)c1nnc(SCC(=O)c2ccc(Cl)cc2)o1` (stereo partly specified), the IC50 is > 80 µM (inactive).
Turning to `CCOc1ccc(-c2c[n+]3c(n2-c2ccccc2)CCCCC3)cc1`, the IC50 is 3.28 µM.
Turning to `COc1cc(C2C(C#N)=C(N)Oc3cc(N)ccc32)cc(OC)c1OC` (stereo unspecified), the IC50 was > 80 µM (inactive).
The figure for `Cc1nn(C(C)(C)C)c(OC(=O)c2ccc(Br)o2)c1Sc1ccccc1` is 53.8 µM (inactive); for `Cc1nc(Nc2c(Cl)cccc2Cl)sc1C(=O)Nc1ccccc1` it is 33 µM (inactive).
With `COc1ccc(OCc2cccc(C(=O)Nc3cc(C)on3)c2)cc1`, the IC50 is 50.6 µM (inactive).
`Cc1c(CCC(=O)N2CCC(C(=O)O)CC2)c(=O)oc2cc3oc4c(c3cc12)CCCC4`: the IC50 is 12.8 µM.
For the molecule `Cc1nnc2c3ccccc3c(-c3ccccc3)nn12`, the IC50 was 61.4 µM (inactive).
In the case of `COc1cc(/C=N/Nc2nc(Nc3ccccc3)nc(N3CCOCC3)n2)ccc1OC(=O)c1ccco1`, the IC50 is > 80 µM (inactive).
Turning to `CC1=CC(C)(C)Nc2ccc(OC(=O)C(C)N3C(=O)c4ccccc4C3=O)cc21` (stereo unspecified), the IC50 is 11.5 µM.
The figure for `CCn1c(=S)[nH]c2cc(S(=O)(=O)N3CCCCC3)ccc21` is 33.9 µM (inactive).
The figure for `O=C(O)CCSc1nc2ccccc2s1` is 2.07 µM.
The figure for `CCC(CO)Oc1cc(NCc2ccccc2O)c2ncn(C(C)C)c2c1` (stereo unspecified) is 4.79 µM.
As for `O=C(CCCN1C(=O)/C(=C/c2ccccc2Cl)SC1=S)Nc1ccccn1`, the IC50 was 23.7 µM (inactive).
As for `CC(C)[C@H](N)c1nnc(SCC(=O)c2ccc(Cl)cc2)o1`, the IC50 is > 80 µM (inactive).
The figure for `Cc1ccc(C(=O)C[n+]2cc(-c3ccc(C)cc3)n3c2CCCCC3)cc1` is 4.44 µM.
The figure for `O=C(Oc1cccc(/C=N/Nc2nc(Nc3ccccc3)nc(N3CCOCC3)n2)c1)c1ccco1` is > 80 µM (inactive).
Regarding `CNC(=O)c1cc(Nc2nnc(-c3ccc(O)cc3)c3ccccc23)ccc1OC`, the IC50 is > 80 µM (inactive).
The figure for `COc1ccc(N(CC(=O)N2CCN(c3ccc(Cl)cc3)CC2)S(=O)(=O)c2c(C)n[nH]c2C)cc1` is 15.3 µM; for `Cc1ccc(C(=O)CSc2nnc(COc3cccc(C)c3)o2)cc1` it is 21.6 µM (inactive).
The figure for `C=CCn1c(O)c(C(CC)=NC(C)c2ccccc2)c(=O)[nH]c1=O` (stereo unspecified) is 25 µM (inactive); for `CCn1c(=O)cc(SCC(=O)N2CCC3(CC2)OCCO3)c2ccccc21` it is > 80 µM (inactive); for `COc1ccc(-n2c(-c3ccc(Cl)cc3)c[n+]3c2CCc2ccccc2-3)cc1` it is 3.18 µM.
`CC(C)(O)/C=C/C(=O)[C@](C)(O)C1[C@H](O)C[C@@]2(C)C3CC=C4C(C[C@H](O)[C@@H](O)C4(C)C)[C@]3(C)C(=O)C[C@]12C` (stereo partly specified): the IC50 is 65.8 µM (inactive).
With `COc1cc(OC)cc(-c2cc3nc(C)c(CCC(=O)Nc4nc(C)cs4)c(C)n3n2)c1`, the IC50 was > 80 µM (inactive).
For the molecule `CCC(CC)C(=O)Nc1ccc(Sc2ccc([N+](=O)[O-])cc2)cc1`, the IC50 was 13.7 µM.
The figure for `O=C(CCCN1C(=O)/C(=C/c2ccccc2Cl)SC1=S)NNC(=O)c1ccc(Cl)cc1Cl` is > 80 µM (inactive).
The figure for `C=C1C(=O)[C@@]23C[C@H]4[C@@H]5[C@@]6(C)CCC[C@@]57[C@@H]2[C@@H](O)[C@@H]1C[C@H]3[C@H]7N4C6` is 17.3 µM.
The figure for `CCC(=O)N(C1=C(NC)C(=O)c2ccccc2C1=O)C(C)C` is > 80 µM (inactive); for `CCc1ccc2nc(Nc3nc(COC)cc(=O)[nH]3)nc(C)c2c1` it is 46.4 µM (inactive).
On to `C=CCOc1ccccc1CN(C(=O)CCl)c1ccc2c(c1)OCO2`, for which the IC50 was 28.1 µM (inactive).
The figure for `CCOc1ccc(-c2noc(CCC(=O)O)n2)cc1` is 8.98 µM.
The figure for `COc1cc(-c2cc(=O)c3c(O)c(OC)c(OC)c(OC)c3o2)cc(OC)c1OC` is > 80 µM (inactive); for `CCOc1ccc(-n2c(SCC(=O)Nc3ccc4c(c3)OCCO4)nc3c(c2=O)SCC3)cc1` it is > 80 µM (inactive).
The figure for `COc1ccc(-c2ccc(C)cc2)cc1[C@H]1[C@H]2C=CC[C@@H](C)[C@@H]2C(=O)N1Cc1ccccc1` is 48.4 µM (inactive).
In the case of `COc1ccc(C=C(C(C)=O)C(C)=O)cc1OC`, the IC50 is > 80 µM (inactive).
As for `CCn1c(=O)cc(SCC(=O)N2CCC(C)CC2)c2ccccc21`, the IC50 was 70.9 µM (inactive).
Turning to `O=C(Cc1cccc2ccccc12)Nc1ccc(-c2cc3ccccc3oc2=O)cc1`, the IC50 was > 80 µM (inactive).
The figure for `O=C(Nc1ccc(NC(=O)c2cc3ccccc3o2)cc1)c1ccc2c(c1)OCCO2` is > 80 µM (inactive); for `CCOc1ccc(/C=C2\SC(=S)N(CCCC(=O)NCCCN3CCOCC3)C2=O)cc1` it is > 80 µM (inactive).
For `CCc1ccc(/C=C2/SC(=S)N(CCC(=O)Nc3cccnc3)C2=O)cc1`, the IC50 is > 80 µM (inactive).
Turning to `COc1cccc(Cn2nnc(C(=O)Nc3cc(Cl)ccc3OC)c2N)c1`, the IC50 was > 80 µM (inactive).
For `CC1CCC/C=C/C2CC(O)CC2C(O)/C=C/C(=O)O1` (stereo unspecified), the IC50 is 0.53 µM.
For the molecule `Cn1c(=O)cc(Nc2ccccc2)c2c(=O)n(-c3ccccc3)c(=O)n(-c3ccccc3)c21`, the IC50 is 79.1 µM (inactive).
As to `COc1cc(OC)cc(-c2cc3nc(C)c(CCC(=O)NCc4ccccc4)c(C)n3n2)c1`, the IC50 was 10.5 µM.
Regarding `CCN(CC(=O)Nc1c(F)cccc1F)C(=O)c1cc(S(=O)(=O)N2CCOCC2)ccc1N1CCCC1`, the IC50 is > 80 µM (inactive).
The figure for `N#CC1=C(N)Oc2cc(Nc3ccccc3)ccc2C1c1ccncc1` (stereo unspecified) is 6.15 µM; for `Cc1c(CCC(=O)N2CCC(C(=O)O)(c3ccccc3)CC2)c(=O)oc2cc3oc4c(c3cc12)CCCC4` it is 21.6 µM (inactive).
The figure for `C=C(C)[C@@H]1CCC2(C(=O)O)CC[C@]3(C)[C@H](CC[C@@H]4[C@@]5(C)CCC(=O)C(C)(C)[C@@H]5CC[C@]43C)[C@@H]12` (stereo partly specified) is 3.31 µM; for `O=C(CCl)N1CCN(S(=O)(=O)c2ccc3c(c2)CCC3)CC1` it is 41.9 µM (inactive).
In the case of `COc1ccc(NS(=O)(=O)c2cc(NC(=O)c3cc(=O)c4ccccc4o3)ccc2OC)cc1`, the IC50 was > 80 µM (inactive).
Regarding `O=C(NNC(=O)C12CC3CC(CC(Br)(C3)C1)C2)c1ccccc1F`, the IC50 was > 80 µM (inactive).
The figure for `COc1cccc(N2CCN(c3ncnc4c3[nH]c3ccc(F)cc34)CC2C)c1` (stereo unspecified) is 0.66 µM.
The figure for `N=c1ccn2c(n1)OC1C(O)C(CO)OC12` (stereo unspecified) is > 80 µM (inactive); for `COc1ccc(NS(=O)(=O)c2ccc(-c3coc(C)n3)cc2)cc1OC` it is 0.66 µM; for `CC(C)(C)C(=O)/C(=C/c1ccncc1)n1cncn1` it is 20.9 µM (inactive).
As for `Cc1nn(C(C)(C)C)c(C)c1/C=N/OC(=O)Nc1ccc(Cl)c(Cl)c1`, the IC50 was < 0.16 µM.
Regarding `CCc1ccc(/C=C2/SC(=S)N(CCC(=O)Nc3cccc(C(=O)O)c3)C2=O)cc1`, the IC50 is > 80 µM (inactive).
In the case of `CCOC(=O)Cc1csc(NC(=S)NC(=O)c2ccc(Cl)cc2)n1`, the IC50 is > 80 µM (inactive).
Regarding `Nc1ccc(-c2cc3ccccc3oc2=O)cc1`, the half-inhibitory concentration (IC50) was 3.53 µM.
`O=C(CN1C(=O)c2ccccc2S1(=O)=O)c1ccc(OC(F)F)cc1`: the IC50 is 5.26 µM.
The figure for `Cc1ccc(-c2cc(C(=O)NCCCN3CCOCC3)no2)cc1` is > 80 µM (inactive); for `CC(=O)c1cn(CCOc2cc(C)ccc2C)c2ccccc12` it is 0.29 µM.
As for `CN1C(=O)CSc2ccc(NC(=O)N3CCN(c4ccccc4)CC3)cc21`, the IC50 was 50.5 µM (inactive).
For the molecule `Cn1c(=O)n(C)c2cc(/C=C3/NC(=O)N(Cc4ccccc4)C3=O)ccc21`, the IC50 is > 80 µM (inactive).
The figure for `CC(=O)Nc1ccc(Nc2nc(-c3sc(NC(C)=O)nc3C)cs2)cc1` is 47.1 µM (inactive); for `O=S(=O)(c1cnc(Cl)c(Cl)c1)N1CCCc2ccccc21` it is > 80 µM (inactive).
The figure for `CC1CCN(CCCNC(=O)COc2cc(=O)n(C)c3ccccc23)CC1` is > 80 µM (inactive); for `COc1ccc(-c2n(Cc3ccccc3)c3ccccc3[n+]2Cc2ccccc2)cc1` it is 24.2 µM (inactive).
The figure for `COc1ccc(-c2noc(N3CCC(C(=O)Nc4cccc(OC)c4)CC3)n2)cc1` is 17.9 µM; for `Cc1ccc(/C=C2\SC(=S)N(CCCC(=O)Nc3ccccn3)C2=O)cc1` it is 32.1 µM (inactive); for `COc1ccccc1/C=C1\SC(=S)N(CCC(=O)NC2=NCCS2)C1=O` it is > 80 µM (inactive).
In the case of `COCCCn1c(=O)/c(=C\c2cccc(OC)c2OC)s/c1=C(/C#N)C(=O)Nc1ccc(C(=O)O)cc1`, the IC50 was 34.1 µM (inactive).
The figure for `COc1cc(NC(=O)c2cc3c(C)nc4ccccc4c3o2)cc(OC)c1OC` is 18.4 µM; for `Cn1nnnc1Sc1ncnc2scc(Br)c12` it is 4.26 µM; for `CN1C(=O)c2cccc3c(S(=O)(=O)Nc4ccccc4F)ccc1c23` it is 69.7 µM (inactive).
